# Data from publication PMC8767159, “Multiparameter Optimization of Trypanocidal Cruzain Inhibitors With In Vivo Activity and Favorable Pharmacokinetics” (Frontiers in Pharmacology, 2022).
# Like-named read-outs stand apart in the source and are kept apart here.
# Experiments:
# [1] = tested on: T. cruzi intracellular amastigotes; experiment: Assay against T. cruzi intracellular amastigotes (Tulahuen lacZ strain in HFF-1 fibroblasts); assay type: cell-based, Trypanosoma cruzi; conditions: for IC50: Trypanosoma cruzi
# Method: Biological assays against T. cruzi intracellular amastigotes were performed as reported previously using the T. cruzi Tulahuen strain, which is genetically engineered to express the E. coli β-galactosidase gene lacZ ([Buckner et al., 1996]). β-Galactosidase catalyzes a colorimetric reaction with chlorophenol red β-D-galactopyranoside (CPRG, Sigma Chemical Co., St. Louis, MO) as the substrate. The assays were conducted in 96-well tissue culture plates, and the compounds to be tested were prepared in 100% DMSO. Epimastigotes were maintained in liver infusion tryptone (LIT) enriched with 10% fetal calf serum (FCS), streptomycin, and penicillin at 28°C. Epimastigotes were converted to trypomastigotes by incubation in Grace’s insect medium (Sigma–Aldrich, St. Louis, MO) enriched with 10% FCS at 28°C. Human HFF-1 fibroblasts were seeded at 2 × 10^3/well in 80 μl of RPMI 1640 without phenol red and incubated overnight at 37°C and 5% CO2. Trypomastigotes were seeded at 1.0 × 10^4/well in 20 μl of RPMI 1640, and the plates were incubated at 37°C and 5% CO2. The next day, the synthesized compounds were added (50 μl) in 3-fold serial dilutions at concentrations ranging from 0.4 to 300 μM, and the plates were incubated at 37°C and 5% CO2. Each compound concentration was assayed in triplicate. After 120 h, 50 μl of chlorophenol red β-D-galactopyranoside (CPRG, Sigma–Aldrich) and IGEPAL CA-630 (Sigma–Aldrich) at a final concentration of 0.1% were added. The absorbance was measured at a wavelength of 570 nm in an automated microplate reader. The data were transferred to SigmaPlot 10.0 (Systat Software Inc., Erkrath, Germany) to determine the IC50 values. Benznidazole (BZ, Sigma–Aldrich) was used as a positive control, and untreated wells (100% parasite growth) were used as negative controls in all plates. All compounds were tested in three independent assays.
# [2] = In vitro metabolic stability in human liver microsomes; assay type: in vitro ADME; conditions: for CLint scaled at 5 µM: human, liver microsomes
# Method: Isolated mouse (BD Gentest, Bedford, MA) and human liver microsomes (XenoTech, Kansas City, KS) ([Plant, 2004]) were added at a final concentration of 0.25 mg/ml to a solution containing 40 mM dibasic potassium phosphate and 10 mM monobasic potassium phosphate. Stock solutions of compounds at 5 mM were prepared in 100% DMSO. A 50:50 quenching solution of acetonitrile (ACN) and methanol (MeOH) was prepared. An NADPH solution was prepared at 10 mM. The preparations containing the microsomes were added to each well of the incubation plate (450 µl), which was then heated to 37°C for 10 min. The compounds were added to the respective wells of the test plate (2 µl). Then, 300 µl of the microsome preparation was added to each well of the test plate. The test plate was heated under gentle rotation for 5 min at 37°C. Next, 90 µl of the mixture contained in the test plate was added to the incubation plate, making a final volume of 540 µl. Samples were collected at the following incubation times: 0, 5, 10, 15, 20, and 30 min. To the 0 min sample plate, quenching solution (180 µl), NADPH (6 µl), and the incubation plate mixture (54 µl) were added to each well. The sample plate was then sealed, homogenized, and stored at 4°C. Then, 54 µl of the NADPH solution was added to the incubation plate, which was homogenized. Before the collection of each sample at the established times, 45 µl of the quenching solution was added to each well of the corresponding sample plates. After reaching the incubation times, 60 µl of the mixture contained in the incubation plate was added to the corresponding sample plates. The sample plates were then sealed and stored at 4°C. After the collection of the last sample (30 min), all sample plates were centrifuged at 3,800 rpm for 30 min. The supernatant from each well was collected and transferred to clean plates for mass spectrometry. Five to 10 µl of each sample was injected into an AB Sciex Triple Quad 5500 LC-MS/MS instrument.
# For the biotransformation experiments and analysis of metabolites in microsomes, an Ultra-High-Pressure Liquid Chromatography instrument (UHPLC, Thermo Accela, Waltham, MA) ([Spaggiari et al., 2014]) connected to an automatic sample injector and a 1250 series pump was used. The UHPLC system was connected to a Thermo Fisher (Waltham, MA) LTQ Orbitrap mass spectrometer. For all other analyses, an AB Sciex Triple Quad 5500 coupled to a UHPLC equipped with a UV 1290 diode detector (Agilent Technologies, Santa Clara, CA) and a CTC PAL self-collecting system (LEAP Technologies, Carrboro, NC) was used. Q1 MS positive ion mode (300–500 Da) was used to detect the ions of the parent compounds. The UV detector was operated in spectral mode (250–280 nm). A Hypersil Gold C18 (2.1 mm × 100 mm, 1.9 µm, Thermo Fisher) HPLC column was used. The mobile phases were solvent A (0.1% formic acid in water) and solvent B (0.1% formic acid in ACN). The flow was adjusted to 0.55 ml/min, and the injection volume was adjusted to […]. The gradient started with 1% solvent B for 0.4 min, reached 40% (solvent B) in 2.3 min and 95% (solvent B) in 0.67 min, was maintained for 0.5 min, and returned to the initial condition of 1%. This condition was maintained for 1 min before injection of the next sample. The peak area ratio (peak area of the test compounds/peak area of the control compounds) was converted to the percentage of remaining compound, with the 0 min time point ratio set to 100%. T½ and CLint were calculated from the percentage of remaining compound versus the incubation time. From the resulting function, the slope (k) was determined. The equations T1/2 (min) = ln(2)/k and CLint in vitro (μL/min/mg) = k*1000/0.25 were used to determine T½ and CLint.
# [3] = Fraction unbound by equilibrium dialysis; assay type: in vitro ADME; conditions: pH 7.4
# Method: The fraction unbound (fu) ([Masimirembwa et al., 2003]) of the test compounds was determined after incubation with different media, namely, plasma, microsomes, and buffer with 10% FCS. Equilibrium dialysis was performed in a 96-well plate (HT-Dialysis, Gales Ferry, CT) in which each well was divided by a semipermeable membrane (12–14 kDa cutoff). The test compounds diluted in either plasma, microsome suspension, or buffer were added to one side of the membrane. Potassium phosphate buffer (50 mM, pH 7.4) was added to the other side of the membrane. A standard curve was used to calculate the compound concentration (fu) on each side of the membrane. Stock solutions of each compound were prepared in 100% DMSO to obtain a final concentration of 1 mM. The following compound concentrations were used: 1, 2, 20, 200, 2,000 and 5,000 nM. To 500 μl of medium, 0.5 μl of the compound stock solution was added, and this was applied to one side of the well. Each compound was evaluated in triplicate. Next, the plate was assembled, sealed, and incubated at 37°C under rotation (150 rpm) for 4 h. After the incubation period, the plates were subjected to LC-MS/MS.
# [4] = HFF-1, 120 h, Table 3, 120 h, mean ± SD of three assays
# [5] = Table S5, CLint/fu, read-out: CLint_u (L/h/kg) Human (converted)
# [6] = Table S5, read-out: CLint (L/h/kg) Human (converted)
# [7] = HFF-1, Table 4, mean ± SD of three assays
# [8] = Table 5, CLint/fu, read-out: CLint_u (L/h/kg) human (converted)
# [9] = Table 5, read-out: CLint (L/h/kg) human (converted)
# [10] = Table 5, fraction unbound used to correct CLint
# [11] = Table 6, fraction unbound used to correct plasma clearance
# [12] = Table S6, fraction unbound used to correct plasma clearance
"CLint scaled at 5 µM [2, 5] [L/h/kg]","fraction unbound at 4 h, 1 µM ([3]; Table S5, fraction unbound)",Compound,"IC50 [1, 4] [µM]","CLint scaled at 5 µM [2, 6] [L/h/kg]","IC50 [1, 7] [µM]",also measured
,,O=C(COc1ccccc1[N+](=O)[O-])NCCc1nc2ccccc2[nH]1 [Compound 32],,,7.9 ± 2.13,"CLint scaled at 5 µM [2, 8]: 39.2 L/h/kg; CLint scaled at 5 µM [2, 9]: 25.5 L/h/kg; fraction unbound at 4 h, 1 µM [3, 10]: 0.7; fraction unbound at 4 h, 1 µM [3, 11]: 0.04"
92.4,0.63,O=C(COc1ccccc1)NCCc1nc2ccccc2n1-c1ccccc1 [Compound 30],,58.1,,
,,O=C(CCc1ccccc1Br)NCCc1nc2ccccc2[nH]1 [Compound 36],,,,"CLint scaled at 5 µM [2, 8]: 38.2 L/h/kg; CLint scaled at 5 µM [2, 9]: 28.8 L/h/kg; fraction unbound at 4 h, 1 µM [3, 10]: 0.8; fraction unbound at 4 h, 1 µM [3, 11]: 0.04"
< 1.5,1,O=C(COc1cccc(NC(=O)CCCO)c1)NCCc1nc2ccccc2[nH]1 [Compound 7],,,,
,,Cc1ccccc1OCC(=O)NCCc1nc2ccccc2[nH]1 [Compound 17],,,2.81 ± 0.75,"CLint scaled at 5 µM [2, 8]: 31.2 L/h/kg; CLint scaled at 5 µM [2, 9]: 23.9 L/h/kg; fraction unbound at 4 h, 1 µM [3, 10]: 0.8; fraction unbound at 4 h, 1 µM [3, 11]: 0.06"
< 1.5,1,O=C(COc1ccc2c(C(=O)O)cccc2c1)NCCc1nc2ccccc2[nH]1 [Compound 15],,< 1.5,,
949,0.12,O=C(COc1ccccc1)NCCc1nc2ccccc2n1CCOc1ccccc1Br [Compound 19],,112,,
496,0.47,O=C(COc1ccccc1)NCCc1nc2ccccc2n1CCOCc1ccccc1 [Compound 21],,235,,
< 1.51,0.99,O=C(COc1ccc(N2C(=O)CCC2=O)cc1)NCCc1nc2ccccc2[nH]1 [Compound 4],,< 1.5,,
3870,0.03,Cc1ccccc1OCC(=O)NCCc1nc2ccccc2n1CCOc1ccccc1Br [Compound 22],,123,,
,,N#Cc1ccccc1OCC(=O)NCCc1nc2ccccc2[nH]1 [Compound 31],,,,"CLint scaled at 5 µM [2, 8]: 6.6 L/h/kg; CLint scaled at 5 µM [2, 9]: 5.6 L/h/kg; fraction unbound at 4 h, 1 µM [3, 10]: 0.9; fraction unbound at 4 h, 1 µM [3, 11]: 0.15"
23,1,COCCn1c(CCNC(=O)COc2ccccc2)nc2ccccc21 [Compound 29],,23,,
3.54,1,O=C(COc1cccc(N2C(=O)CCC2=O)c1)NCCc1nc2ccccc2[nH]1 [Compound 6],,3.54,,"CLint_u (L/h/kg) Human ([2]; Table S5, CLint/fu): 3.54 L/h/kg"
3370,0.04,O=C(COc1ccccc1Br)NCCc1nc2ccccc2n1CCOc1ccccc1Br [Compound 23],,136,,

Compound,"CLint scaled at 5 µM [2, 5] [L/h/kg]","fraction unbound at 4 h, 1 µM ([3]; Table S5, fraction unbound)","IC50 [1, 4] [µM]","CLint scaled at 5 µM [2, 6] [L/h/kg]","IC50 [1, 7] [µM]",also measured
COc1ccc2cc(OCC(=O)NCCc3nc4ccccc4[nH]3)ccc2c1 [Compound 12],233,,16.6 ± 2.4,25.6,,
O=C(COc1ccccc1)NCCc1nc2ccccc2n1CCCOc1ccccc1 [Compound 24],524,0.27,1.43 ± 0.4,142,1.43 ± 0.4,
O=C(COc1ccccc1)NCCc1nc2ccccc2n1Cc1ccccc1 [Compound 26],196,0.61,7.4 ± 2,120,7.4 ± 2,
CC(=O)Nc1cccc(OCC(=O)NCCc2nc3ccccc3[nH]2)c1 [Compound 3],6.9,1,5 ± 1,6.9,5 ± 1,"CLint_u (L/h/kg) Human ([2]; Table S5, CLint/fu): 6.90 L/h/kg; fraction unbound at 4 h, 1 µM [3, 12]: 0.16"
Nc1cccc(OCC(=O)NCCc2nc3ccccc3[nH]2)c1 [Compound 9],11.1,0.99,5.4 ± 0.9,11,,
CC(=O)Nc1ccc(OCC(=O)NCCc2nc3ccccc3[nH]2)cc1 [Compound 2],< 1.5,1,4.5 ± 0.6,< 1.5,12.1 ± 1.3,"fraction unbound at 4 h, 1 µM [3, 12]: 0.49"
O=C(COc1ccc(NC(=O)CCCO)cc1)NCCc1nc2ccccc2[nH]1 [Compound 5],1.53,0.96,,1.5,~50,
O=C(COc1ccccc1)NCCc1nc2ccccc2[nH]1 [Compound 1],< 1.5,1,3.9 ± 0.3,< 1.5,3.9 ± 0.3,"fraction unbound at 4 h, 1 µM [3, 12]: 0.23"
Cn1c(CCNC(=O)COc2ccccc2)nc2ccccc21 [Compound 25],4.61,0.99,~100,4.57,,"IC50 T. cruzi (μM) ([1]; Table 3, 120 h, mean ± SD of three assays): inactive"
